Laboratory results as given in PubChem BioAssay AID2060485 (Molecular Pharmacology Branch, DTP, NCI, 2025).

Tested on: A375 multi-cell spheroids with HUVEC/MSC, viability
Experiment: Anticancer human tumor A375 cell line growth inhibition [GQUAD];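 note: spheroids exposed to compounds for seven days before readout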
Conditions: for IC50: curve of first compound; for viability, T/C: stronger effect = lower value
Summary of the method: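 Multi-cell-type spheroids of tumor cells with HUVEC and mesenchymal stem cells, treated with drug combinations. Concentrations descend in half-log steps from near clinical Cmax, or from 10 microM where Cmax is unknown; viability read-out.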

[1] = second compound 0.0316 µM, first compound 0.0316 µM
[2] = second compound 0.0316 µM, first compound 0.1 µM
[3] = second compound 0.0316 µM, first compound 0.316 µM
[4] = second compound 0.0316 µM, first compound 1 µM
[5] = second compound 0.0316 µM, first compound 3.16 µM
[6] = second compound 0.0316 µM, first compound 10 µM
[7] = second compound 0.1 µM, first compound 0.0316 µM
[8] = second compound 0.1 µM, first compound 0.1 µM
[9] = second compound 0.1 µM, first compound 0.316 µM
[10] = second compound 0.1 µM, first compound 1 µM
[11] = second compound 0.1 µM, first compound 3.16 µM
[12] = second compound 0.1 µM, first compound 10 µM
[13] = second compound 0.316 µM, first compound 0.0316 µM
[14] = second compound 0.316 µM, first compound 0.1 µM
[15] = second compound 0.316 µM, first compound 0.316 µM
[16] = second compound 0.316 µM, first compound 1 µM
[17] = second compound 0.316 µM, first compound 3.16 µM
[18] = second compound 0.316 µM, first compound 10 µM
[19] = second compound 1 µM, first compound 0.0316 µM
[20] = second compound 1 µM, first compound 0.1 µM
[21] = second compound 1 µM, first compound 0.316 µM
[22] = second compound 1 µM, first compound 1 µM
[23] = second compound 1 µM, first compound 3.16 µM
[24] = second compound 1 µM, first compound 10 µM
[25] = second compound 3.16 µM, first compound 0.0316 µM
[26] = second compound 3.16 µM, first compound 0.1 µM
[27] = second compound 3.16 µM, first compound 0.316 µM
[28] = second compound 3.16 µM, first compound 1 µM
[29] = second compound 3.16 µM, first compound 3.16 µM
[30] = second compound 3.16 µM, first compound 10 µM
[31] = second compound 10 µM, first compound 0.0316 µM
[32] = second compound 10 µM, first compound 0.1 µM
[33] = second compound 10 µM, first compound 0.316 µM
[34] = second compound 10 µM, first compound 1 µM
[35] = second compound 10 µM, first compound 3.16 µM
[36] = second compound 10 µM, first compound 10 µM

## COc1cccc2c1C(=O)c1c(O)c3c(c(O)c1C2=O)CC(O)(C(=O)CO)CC3OC1CC(N)C(O)C(C)O1 (centres undefined) + Cc1cnc(CNC(=O)c2c(=O)c3ccc(N4CCCN(C)CC4)nc3n3c2sc2ccccc23)cn1
Second compound 0.0316 µM
  IC50: 168 nM
Second compound 0.1 µM
  IC50: 56.2 nM
Second compound 0.316 µM
  IC50: < 31.6 nM
Second compound 1 µM
  IC50: < 31.6 nM
Second compound 3.16 µM
  IC50: < 31.6 nM
Second compound 10 µM
  IC50: < 31.6 nM
[1]
  viability, T/C: 109%
[2]
  viability, T/C: 64.1%
[3]
  viability, T/C: 31.2%
[4]
  viability, T/C: 20.5%
[5]
  viability, T/C: 1.64%
[6]
  viability, T/C: 0.08%
[7]
  viability, T/C: 59.3%
[8]
  viability, T/C: 38.7%
[9]
  viability, T/C: 30.2%
[10]
  viability, T/C: 17.9%
[11]
  viability, T/C: 1%
[12]
  viability, T/C: 0.06%
[13]
  viability, T/C: 41.5%
[14]
  viability, T/C: 33.4%
[15]
  viability, T/C: 27.4%
[16]
  viability, T/C: 16.1%
[17]
  viability, T/C: 0.21%
[18]
  viability, T/C: 0.08%
[19]
  viability, T/C: 37.1%
[20]
  viability, T/C: 30.9%
[21]
  viability, T/C: 27.4%
[22]
  viability, T/C: 15.2%
[23]
  viability, T/C: 0.07%
[24]
  viability, T/C: 0.09%
[25]
  viability, T/C: 33%
[26]
  viability, T/C: 31.4%
[27]
  viability, T/C: 24.5%
[28]
  viability, T/C: 14.9%
[29]
  viability, T/C: 0.12%
[30]
  viability, T/C: 0.13%
[31]
  viability, T/C: 25.6%
[32]
  viability, T/C: 24.9%
[33]
  viability, T/C: 20.4%
[34]
  viability, T/C: 13.7%
[35]
  viability, T/C: 0.21%
[36]
  viability, T/C: 0.22%

## O=c1[nH]cc(F)c(=O)[nH]1 + Cc1[nH]c2ccc(F)cc2c1-c1nc2c3cccnc3c3ncccc3c2[nH]1
Second compound 0.0316 µM
  IC50: > 10000 nM
Second compound 0.1 µM
  IC50: > 10000 nM
Second compound 0.316 µM
  IC50: > 10000 nM
Second compound 1 µM
  IC50: > 10000 nM
Second compound 3.16 µM
  IC50: > 10000 nM
Second compound 10 µM
  IC50: > 10000 nM
[1]
  viability, T/C: 102%
[2]
  viability, T/C: 99%
[3]
  viability, T/C: 109%
[4]
  viability, T/C: 105%
[5]
  viability, T/C: 97.9%
[6]
  viability, T/C: 92.9%
[7]
  viability, T/C: 106%
[8]
  viability, T/C: 93.2%
[9]
  viability, T/C: 105%
[10]
  viability, T/C: 114%
[11]
  viability, T/C: 103%
[12]
  viability, T/C: 101%
[13]
  viability, T/C: 96%
[14]
  viability, T/C: 92.9%
[15]
  viability, T/C: 102%
[16]
  viability, T/C: 95.2%
[17]
  viability, T/C: 112%
[18]
  viability, T/C: 103%
[19]
  viability, T/C: 101%
[20]
  viability, T/C: 103%
[21]
  viability, T/C: 111%
[22]
  viability, T/C: 97.6%
[23]
  viability, T/C: 115%
[24]
  viability, T/C: 102%
[25]
  viability, T/C: 83.9%
[26]
  viability, T/C: 90.9%
[27]
  viability, T/C: 93.6%
[28]
  viability, T/C: 88.4%
[29]
  viability, T/C: 101%
[30]
  viability, T/C: 80.3%
[31]
  viability, T/C: 88.2%
[32]
  viability, T/C: 81.6%
[33]
  viability, T/C: 111%
[34]
  viability, T/C: 104%
[35]
  viability, T/C: 96.3%
[36]
  viability, T/C: 77.4%
